Results taken from ChEMBL document CHEMBL4507324 (2021).

Legend:
Conditions in all cases: Compound concentration 100.0 nM
[1] = target: Vascular endothelial growth factor receptor 1 (Homo sapiens) (UniProt P17948)
[2] = target: Death-associated protein kinase 3 (Homo sapiens) (UniProt O43293)
[3] = target: Serine/threonine-protein kinase Sgk3 (Homo sapiens) (UniProt Q96BR1)
[4] = system: Epidermal growth factor receptor (Homo sapiens), P00533 [UNDEFINED MUTATION]
[5] = system: Tyrosine-protein kinase ABL1 (Homo sapiens), P00519 [M351T]
[6] = target: Serine/threonine-protein kinase PAK 5 (Homo sapiens) (UniProt Q9P286)
[7] = target: Serine/threonine-protein kinase 32B (Homo sapiens) (UniProt Q9NY57)
[8] = target: Activated CDC42 kinase 1 (Homo sapiens) (UniProt Q07912)
[9] = target: 1-phosphatidylinositol 3-phosphate 5-kinase (Homo sapiens) (UniProt Q9Y2I7)
[10] = target: Ribosomal protein S6 kinase alpha-6 (Homo sapiens) (UniProt Q9UK32)
[11] = target: Serine/threonine-protein kinase MRCK alpha (Homo sapiens) (UniProt Q5VT25)
[12] = target: Casein kinase I isoform alpha (Homo sapiens) (UniProt P48729)
[13] = target: Ribosomal protein S6 kinase alpha-5 (Homo sapiens) (UniProt O75582)
[14] = target: Mitogen-activated protein kinase kinase kinase 4 (Homo sapiens) (UniProt Q9Y6R4)
[15] = target: Serine/threonine-protein kinase haspin (Homo sapiens) (UniProt Q8TF76)
[16] = target: Tyrosine-protein kinase Tec (Homo sapiens) (UniProt P42680)
[17] = target: Serine/threonine-protein kinase PAK 6 (Homo sapiens) (UniProt Q9NQU5)
[18] = target: Myosin-IIIb (Homo sapiens) (UniProt Q8WXR4)
[19] = target: Ankyrin repeat and protein kinase domain-containing protein 1 (Homo sapiens) (UniProt Q8NFD2)
[20] = target: cAMP-dependent protein kinase catalytic subunit beta (Homo sapiens) (UniProt P22694)
[21] = target: LIM domain kinase 1 (Homo sapiens) (UniProt P53667)
[22] = target: Serine/threonine-protein kinase 17A (Homo sapiens) (UniProt Q9UEE5)
[23] = target: Phosphatidylinositol 4,5-bisphosphate 3-kinase catalytic subunit beta isoform (Homo sapiens) (UniProt P42338)
[24] = target: Interferon-induced, double-stranded RNA-activated protein kinase (Homo sapiens) (UniProt P19525)
[25] = target: Serine/threonine-protein kinase 33 (Homo sapiens) (UniProt Q9BYT3)
[26] = target: Phosphatidylinositol 3-kinase C2 domain-containing subunit gamma (Homo sapiens) (UniProt O75747)
[27] = system: Phosphatidylinositol 4,5-bisphosphate 3-kinase catalytic subunit alpha isoform (Homo sapiens), P42336 [I800L]
[28] = target: Tyrosine-protein kinase JAK1 (Homo sapiens) (UniProt P23458)
[29] = target: Muscle, skeletal receptor tyrosine-protein kinase (Homo sapiens) (UniProt O15146)
[30] = target: Serine/threonine-protein kinase Nek4 (Homo sapiens) (UniProt P51957)
[31] = target: Mitogen-activated protein kinase kinase kinase 12 (Homo sapiens) (UniProt Q12852)
[32] = target: Serine/threonine-protein kinase DCLK3 (Homo sapiens) (UniProt Q9C098)
[33] = target: Phosphatidylinositol 4,5-bisphosphate 3-kinase catalytic subunit gamma isoform (Homo sapiens) (UniProt P48736)
[34] = target: Tyrosine-protein kinase Lck (Homo sapiens) (UniProt P06239)
[35] = target: Dual specificity protein kinase CLK3 (Homo sapiens) (UniProt P49761)
[36] = target: Atypical kinase COQ8B, mitochondrial (Homo sapiens) (UniProt Q96D53)
[37] = target: Tyrosine-protein kinase ABL1 (Homo sapiens) (UniProt P00519)
[38] = target: Cytoplasmic tyrosine-protein kinase BMX (Homo sapiens) (UniProt P51813)
[39] = target: Casein kinase II subunit alpha (Homo sapiens) (UniProt P68400)
[40] = target: Cyclin-dependent kinase 18 (Homo sapiens) (UniProt Q07002)
[41] = target: Serine/threonine-protein kinase 36 (Homo sapiens) (UniProt Q9NRP7)
[42] = target: Mitogen-activated protein kinase 3 (Homo sapiens) (UniProt P27361)
[43] = system: Tyrosine-protein kinase ABL1 (Homo sapiens), P00519 [F317L]
[44] = target: Dual specificity mitogen-activated protein kinase kinase 4 (Homo sapiens) (UniProt P45985)
[45] = target: Serine/threonine-protein kinase WNK4 (Homo sapiens) (UniProt Q96J92)

Sequence of Phosphatidylinositol 4,5-bisphosphate 3-kinase catalytic subunit beta isoform (Homo sapiens) (P42338 whole entry, looked up, canonical isoform): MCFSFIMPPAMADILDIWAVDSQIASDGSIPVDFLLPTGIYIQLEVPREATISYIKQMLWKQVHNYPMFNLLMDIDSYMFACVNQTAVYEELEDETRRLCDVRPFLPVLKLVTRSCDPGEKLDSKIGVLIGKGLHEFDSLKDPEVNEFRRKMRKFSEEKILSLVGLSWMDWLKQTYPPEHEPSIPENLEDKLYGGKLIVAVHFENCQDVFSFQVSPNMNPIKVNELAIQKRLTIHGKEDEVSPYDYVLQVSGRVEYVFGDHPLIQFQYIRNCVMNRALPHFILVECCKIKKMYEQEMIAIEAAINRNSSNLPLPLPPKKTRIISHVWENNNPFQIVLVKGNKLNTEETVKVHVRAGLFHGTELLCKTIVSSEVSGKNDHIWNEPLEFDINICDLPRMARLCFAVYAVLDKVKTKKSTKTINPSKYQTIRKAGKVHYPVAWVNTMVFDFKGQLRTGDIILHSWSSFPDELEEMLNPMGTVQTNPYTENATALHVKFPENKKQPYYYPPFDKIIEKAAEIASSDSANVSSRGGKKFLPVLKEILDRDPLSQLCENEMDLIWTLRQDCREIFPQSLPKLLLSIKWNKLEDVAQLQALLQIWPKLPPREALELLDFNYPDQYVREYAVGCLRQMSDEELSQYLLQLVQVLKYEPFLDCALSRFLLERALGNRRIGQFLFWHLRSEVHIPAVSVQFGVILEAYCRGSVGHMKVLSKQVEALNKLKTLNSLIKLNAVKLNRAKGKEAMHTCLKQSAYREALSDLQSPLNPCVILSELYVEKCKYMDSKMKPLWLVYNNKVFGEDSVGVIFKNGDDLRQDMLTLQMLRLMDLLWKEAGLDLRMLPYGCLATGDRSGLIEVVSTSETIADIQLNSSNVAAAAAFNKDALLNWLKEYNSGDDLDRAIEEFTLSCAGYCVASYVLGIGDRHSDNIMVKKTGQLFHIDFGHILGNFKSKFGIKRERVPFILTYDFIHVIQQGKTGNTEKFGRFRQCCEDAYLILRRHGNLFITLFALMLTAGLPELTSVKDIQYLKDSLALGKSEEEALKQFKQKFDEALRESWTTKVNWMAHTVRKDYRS
Sequence of Ribosomal protein S6 kinase alpha-6 (Homo sapiens) (Q9UK32 whole entry): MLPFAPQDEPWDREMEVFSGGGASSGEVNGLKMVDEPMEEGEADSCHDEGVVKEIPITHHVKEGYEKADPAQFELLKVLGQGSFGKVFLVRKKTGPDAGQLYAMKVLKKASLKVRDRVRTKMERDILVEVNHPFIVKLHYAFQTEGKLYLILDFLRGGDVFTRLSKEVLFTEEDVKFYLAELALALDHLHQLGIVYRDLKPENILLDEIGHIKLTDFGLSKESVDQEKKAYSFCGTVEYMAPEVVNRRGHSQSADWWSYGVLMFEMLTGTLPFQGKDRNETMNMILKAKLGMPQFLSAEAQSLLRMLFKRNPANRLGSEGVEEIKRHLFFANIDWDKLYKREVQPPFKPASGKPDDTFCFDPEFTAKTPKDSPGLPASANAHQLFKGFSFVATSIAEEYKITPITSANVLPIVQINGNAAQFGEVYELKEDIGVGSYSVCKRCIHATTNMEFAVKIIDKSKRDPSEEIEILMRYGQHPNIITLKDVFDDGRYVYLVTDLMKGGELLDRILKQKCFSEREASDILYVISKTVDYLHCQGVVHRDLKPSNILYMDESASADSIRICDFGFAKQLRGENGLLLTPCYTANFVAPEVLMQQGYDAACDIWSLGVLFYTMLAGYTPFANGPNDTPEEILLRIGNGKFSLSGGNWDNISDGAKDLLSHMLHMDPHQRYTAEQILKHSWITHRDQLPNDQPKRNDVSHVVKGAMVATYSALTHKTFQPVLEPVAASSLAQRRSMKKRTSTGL
Sequence of Serine/threonine-protein kinase PAK 6 (Homo sapiens) (Q9NQU5 whole entry, looked up): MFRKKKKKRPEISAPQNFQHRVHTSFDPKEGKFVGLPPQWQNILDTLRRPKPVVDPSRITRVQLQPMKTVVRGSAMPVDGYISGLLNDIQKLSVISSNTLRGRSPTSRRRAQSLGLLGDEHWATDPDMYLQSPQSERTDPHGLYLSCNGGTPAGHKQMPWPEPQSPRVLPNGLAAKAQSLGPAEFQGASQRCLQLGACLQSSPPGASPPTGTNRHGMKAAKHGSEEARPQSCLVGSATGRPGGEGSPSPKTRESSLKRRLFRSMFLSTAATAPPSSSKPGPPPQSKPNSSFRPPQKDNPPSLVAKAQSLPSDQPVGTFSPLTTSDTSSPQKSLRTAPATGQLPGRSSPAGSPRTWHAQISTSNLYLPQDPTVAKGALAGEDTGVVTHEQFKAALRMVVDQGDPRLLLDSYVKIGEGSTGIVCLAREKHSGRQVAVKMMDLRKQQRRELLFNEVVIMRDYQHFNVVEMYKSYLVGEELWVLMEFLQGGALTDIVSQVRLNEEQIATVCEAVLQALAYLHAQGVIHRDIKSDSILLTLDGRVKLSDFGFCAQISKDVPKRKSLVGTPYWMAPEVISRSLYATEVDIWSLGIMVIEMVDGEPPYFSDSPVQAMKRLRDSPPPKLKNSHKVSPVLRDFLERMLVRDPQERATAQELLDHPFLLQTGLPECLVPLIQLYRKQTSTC
Sequence of Serine/threonine-protein kinase DCLK3 (Homo sapiens) (Q9C098 whole entry, canonical isoform): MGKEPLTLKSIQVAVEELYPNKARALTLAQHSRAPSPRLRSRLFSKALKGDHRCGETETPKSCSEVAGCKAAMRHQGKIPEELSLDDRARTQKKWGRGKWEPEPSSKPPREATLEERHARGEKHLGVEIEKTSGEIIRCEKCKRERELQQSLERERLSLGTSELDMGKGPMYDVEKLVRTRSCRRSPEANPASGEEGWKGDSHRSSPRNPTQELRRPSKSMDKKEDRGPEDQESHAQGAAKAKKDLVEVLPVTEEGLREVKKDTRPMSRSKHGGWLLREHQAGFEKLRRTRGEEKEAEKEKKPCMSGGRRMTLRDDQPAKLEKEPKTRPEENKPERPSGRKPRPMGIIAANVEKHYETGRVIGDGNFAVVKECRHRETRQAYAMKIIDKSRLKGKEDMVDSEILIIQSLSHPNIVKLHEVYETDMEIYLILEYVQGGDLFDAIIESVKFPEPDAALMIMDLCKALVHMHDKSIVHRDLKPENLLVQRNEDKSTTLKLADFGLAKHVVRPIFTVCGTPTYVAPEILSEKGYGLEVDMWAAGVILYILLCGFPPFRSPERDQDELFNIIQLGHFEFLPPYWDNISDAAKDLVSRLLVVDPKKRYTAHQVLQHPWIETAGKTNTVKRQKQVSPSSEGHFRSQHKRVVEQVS
Sequence of Death-associated protein kinase 3 (Homo sapiens) (O43293 whole entry, looked up): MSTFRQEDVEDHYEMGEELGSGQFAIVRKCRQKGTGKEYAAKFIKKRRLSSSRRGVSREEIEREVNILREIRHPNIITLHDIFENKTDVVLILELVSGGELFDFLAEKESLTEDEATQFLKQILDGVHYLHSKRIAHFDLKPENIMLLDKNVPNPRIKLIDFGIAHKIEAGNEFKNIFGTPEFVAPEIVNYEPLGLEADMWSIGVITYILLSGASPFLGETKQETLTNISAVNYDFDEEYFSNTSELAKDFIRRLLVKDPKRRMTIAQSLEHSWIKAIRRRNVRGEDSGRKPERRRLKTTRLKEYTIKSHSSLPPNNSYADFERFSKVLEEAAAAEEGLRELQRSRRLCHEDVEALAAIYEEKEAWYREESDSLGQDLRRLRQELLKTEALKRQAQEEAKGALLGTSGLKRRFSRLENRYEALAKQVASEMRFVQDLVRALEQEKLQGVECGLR
Sequence of Dual specificity protein kinase CLK3 (Homo sapiens) (P49761 whole entry, looked up): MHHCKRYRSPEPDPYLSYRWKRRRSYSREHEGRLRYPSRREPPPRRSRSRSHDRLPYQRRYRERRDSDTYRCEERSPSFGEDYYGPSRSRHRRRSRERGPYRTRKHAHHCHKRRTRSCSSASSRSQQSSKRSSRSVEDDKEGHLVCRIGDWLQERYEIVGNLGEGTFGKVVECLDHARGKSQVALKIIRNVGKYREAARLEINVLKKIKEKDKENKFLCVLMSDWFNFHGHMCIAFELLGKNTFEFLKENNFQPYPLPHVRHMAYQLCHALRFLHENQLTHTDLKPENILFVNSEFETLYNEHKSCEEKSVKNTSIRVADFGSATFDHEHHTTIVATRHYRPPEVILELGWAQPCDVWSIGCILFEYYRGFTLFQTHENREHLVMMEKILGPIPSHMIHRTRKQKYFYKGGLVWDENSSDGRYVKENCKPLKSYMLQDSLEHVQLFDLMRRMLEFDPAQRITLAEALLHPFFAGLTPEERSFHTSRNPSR
Sequence of Tyrosine-protein kinase Tec (Homo sapiens) (P42680 whole entry): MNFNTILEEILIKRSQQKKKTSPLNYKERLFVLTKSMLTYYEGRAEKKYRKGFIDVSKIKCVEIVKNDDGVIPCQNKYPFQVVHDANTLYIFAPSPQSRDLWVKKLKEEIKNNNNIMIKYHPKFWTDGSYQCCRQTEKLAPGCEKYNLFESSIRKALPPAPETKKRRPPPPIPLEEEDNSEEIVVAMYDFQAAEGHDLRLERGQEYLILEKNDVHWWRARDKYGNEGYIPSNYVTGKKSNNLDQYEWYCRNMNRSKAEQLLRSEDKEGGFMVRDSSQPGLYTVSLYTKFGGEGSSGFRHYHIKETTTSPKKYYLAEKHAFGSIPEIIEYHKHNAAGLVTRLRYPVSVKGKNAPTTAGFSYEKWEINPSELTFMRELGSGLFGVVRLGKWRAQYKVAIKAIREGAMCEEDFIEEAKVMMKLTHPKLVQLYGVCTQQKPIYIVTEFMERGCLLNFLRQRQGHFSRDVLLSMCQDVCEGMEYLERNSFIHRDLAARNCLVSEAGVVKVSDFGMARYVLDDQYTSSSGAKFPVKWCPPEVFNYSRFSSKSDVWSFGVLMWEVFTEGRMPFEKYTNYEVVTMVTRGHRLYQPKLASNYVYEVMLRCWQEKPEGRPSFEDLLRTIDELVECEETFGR

CS(=O)(=O)N1CCCC(NC(=O)[C@H](CCC2CCCCC2)NC(=O)c2ccc(CNc3ncnc4c3nnn4-c3ccccc3)cc2)C1 (stereo not given in full) [SR-301]
residual activity [1]: 86% | residual activity [2]: 88% | residual activity [3]: 83% | residual activity [4]: 94% | residual activity [5]: 100% | residual activity [6]: 100% | residual activity [7]: 65% | residual activity [8]: 91% | residual activity [9]: 61% | residual activity [10]: 100% | residual activity [11]: 100% | residual activity [12]: 99% | residual activity [13]: 81% | residual activity [14]: 75% | residual activity [15]: 100% | residual activity [16]: 100% | residual activity [17]: 100% | residual activity [18]: 100% | residual activity [19]: 80% | residual activity [20]: 92% | residual activity [21]: 100% | residual activity [22]: 100% | residual activity [23]: 81% | residual activity [24]: 55% | residual activity [25]: 84% | residual activity [26]: 81% | residual activity [27]: 44% | residual activity [28]: 89% | residual activity [29]: 100% | residual activity [30]: 100% | residual activity [31]: 100% | residual activity [32]: 87% | residual activity [33]: 85% | residual activity [34]: 100% | residual activity [35]: 85% | residual activity [36]: 100% | residual activity [37]: 82% | residual activity [38]: 79% | residual activity [39]: 94% | residual activity [40]: 100% | residual activity [41]: 97% | residual activity [42]: 89% | residual activity [43]: 91% | residual activity [44]: 100% | residual activity [45]: 100%

CS(=O)(=O)N1CCCC(NC(=O)[C@H](CCC2CCCCC2)NC(=O)c2ccc(CNC(=O)c3cnc4ccccn34)cc2)C1 (stereo not given in full) [SR-302]
residual activity [1]: 100% | residual activity [2]: 90% | residual activity [3]: 74% | residual activity [4]: 100% | residual activity [5]: 100% | residual activity [6]: 97% | residual activity [7]: 93% | residual activity [8]: 70% | residual activity [9]: 100% | residual activity [10]: 82% | residual activity [11]: 100% | residual activity [12]: 100% | residual activity [13]: 90% | residual activity [14]: 91% | residual activity [15]: 74% | residual activity [16]: 94% | residual activity [17]: 100% | residual activity [18]: 89% | residual activity [19]: 92% | residual activity [20]: 100% | residual activity [21]: 75% | residual activity [22]: 100% | residual activity [23]: 96% | residual activity [24]: 47% | residual activity [25]: 100% | residual activity [26]: 100% | residual activity [27]: 100% | residual activity [28]: 100% | residual activity [29]: 91% | residual activity [30]: 100% | residual activity [31]: 100% | residual activity [32]: 97% | residual activity [33]: 96% | residual activity [34]: 83% | residual activity [35]: 100% | residual activity [36]: 100% | residual activity [37]: 61% | residual activity [38]: 100% | residual activity [39]: 100% | residual activity [40]: 100% | residual activity [41]: 100% | residual activity [42]: 67% | residual activity [43]: 100% | residual activity [44]: 100% | residual activity [45]: 80%
